The source of these data is patent publication US12473289B2, “Heterocyclic compounds as delta-5 desaturase inhibitors and methods of use” (Amgen Inc., priority 2019, dated 2025).

For this assay, the target named is Delta-5-Desaturase (D5D) (Homo sapiens (Human), UniProt O60427). Nature of the assay: In vitro measurement of Delta-5-Desaturase inhibitory activity using DGLA-CoA and Arachidonyl-CoA mass spectrometric assays. Format: biochemical. Conditions: membrane preparations of D5D-overexpressing HEK293 6E cells; averaged over at least two independent runs. The essentials:
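DGLA-CoA and arachidonyl-CoA were read by RapidFire SPE triple-quad MS (negative mode, MRM) after a 1 h ambient-temperature reaction quenched with acetonitrile. Enzyme was D5D-overexpressing HEK293 6E membranes at 10 μg/mL final; substrate solution held 0.01 mM DGLA plus NADH, ATP and CoA. Inhibition was referenced to DMSO and no-enzyme wells; 4PL IC50.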

In general, IC50 refers to the concentration that gives 50% inhibition.

Delta-5-Desaturase (D5D), sequence (O60427 whole entry, species assumed): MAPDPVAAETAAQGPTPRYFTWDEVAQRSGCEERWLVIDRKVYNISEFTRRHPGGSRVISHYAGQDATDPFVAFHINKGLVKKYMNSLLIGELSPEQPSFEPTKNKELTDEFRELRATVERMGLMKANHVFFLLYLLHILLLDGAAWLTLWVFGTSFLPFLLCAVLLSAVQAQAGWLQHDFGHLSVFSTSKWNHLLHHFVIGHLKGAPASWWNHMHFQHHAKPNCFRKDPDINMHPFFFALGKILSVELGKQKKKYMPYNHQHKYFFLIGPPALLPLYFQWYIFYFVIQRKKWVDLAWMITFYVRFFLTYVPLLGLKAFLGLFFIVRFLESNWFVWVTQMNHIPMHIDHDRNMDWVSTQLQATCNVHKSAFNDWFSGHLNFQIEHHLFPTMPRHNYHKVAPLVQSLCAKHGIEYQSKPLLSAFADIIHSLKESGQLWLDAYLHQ

As to `[2H]C([2H])([2H])Oc1ccn2c(=O)c(-c3ccc(OCC(F)(F)F)nc3)c(C(F)(F)F)nc2c1` [Example 1-64, 8-(methyloxy-d3)-3-(6-(2,2,2-trifluoroethoxy)-3-pyridinyl)-2-(trifluoromethyl)-4H-pyrido[1,2-a]pyrimidin-4-one], half-maximal inhibition (IC50) was put at 21.5 nM.
To `CCc1ccn2c(=O)c(-c3ccc(OCC(F)(F)F)cc3)c(C(F)(F)F)nc2c1` [Example 2-1, 8-Ethyl-3-(4-(2,2,2-trifluoroethoxy)phenyl)-2-(trifluoromethyl)-4H-pyrido[1,2-a]pyrimidin-4-one] belongs 22.6 nM; to `COc1ccn2c(=O)c(-c3cnc(-c4ccccc4)o3)c(C(F)(F)F)nc2c1` [Example 1-6, 8-methoxy-3-(2-phenyl-1,3-oxazol-5-yl)-2-(trifluoromethyl)-4H-pyrido[1,2-a]pyrimidin-4-one], 110 nM; to `COc1ccn2c(=O)c(-c3cnc(OCC(F)(F)F)nc3)c(C(F)(F)F)nc2n1` [Example 39-13, 8-methoxy-3-[2-(2,2,2-trifluoroethoxy)pyrimidin-5-yl]-2-(trifluoromethyl)-4H-[1,3]diazino[1,2-a]pyrimidin-4-one], 248 nM.
Under `COc1ccn2c(=O)c(-c3cnn(-c4ccccc4)c3)c(C(F)(F)F)nc2c1` [Example 1-47, 8-methoxy-3-(1-phenyl-1H-pyrazol-4-yl)-2-(trifluoromethyl)-4H-pyrido[1,2-a]pyrimidin-4-one] stands 5.4 nM; under `COc1cc2nc(C(F)(F)F)c(-c3cnn(CC4CC4(F)F)c3)c(=O)n2cc1F` (racemic) [Example 39-59, 3-{1-[(2,2-difluorocyclopropyl)methyl]-1H-pyrazol-4-yl}-7-fluoro-8-methoxy-2-(trifluoromethyl)-4H-pyrido[1,2-a]pyrimidin-4-one], 5 nM; under `CNc1ccn2c(=O)c(-c3ccc(OCC(F)(F)F)cc3)c(C(F)(F)F)nc2n1` [Example 14-1, 8-(Methylamino)-3-(4-(2,2,2-trifluoroethoxy)phenyl)-2-(trifluoromethyl)-4H-pyrimido[1,2-a]pyrimidin-4-one], 40.9 nM.
Molecule `O=c1c(-c2cnn(-c3ccccc3)c2)c(C(F)(F)F)nc2ccccn12` [Example 1-43, 3-(1-phenyl-1H-pyrazol-4-yl)-2-(trifluoromethyl)-4H-pyrido[1,2-a]pyrimidin-4-one] registered a half-maximal inhibitory concentration (IC50) of 45.6 nM.
Under `O=c1c(-c2cnc(OCC(F)(F)F)nc2)c(C(F)(F)F)nc2n1CCOC2` [Example 39-39, 3-[2-(2,2,2-trifluoroethoxy)pyrimidin-5-yl]-2-(trifluoromethyl)-4H,6H,7H,9H-pyrimido[2,1-c][1,4]oxazin-4-one] stands greater than 67000 nM; under `COc1ccn2c(=O)c(-c3cc(CCC(F)(F)F)no3)c(C(F)(F)F)nc2c1` [Example 55, 8-Methoxy-2-(trifluoromethyl)-3-[3-(3,3,3-trifluoropropyl)-1,2-oxazol-5-yl]-4H-pyrido[1,2-a]pyrimidin-4-one], 8.7 nM; under `Cc1cc2nc(C(F)(F)F)c(-c3ccc(OCC(F)(F)F)cc3)c(=O)n2cc1Cl` [Example 41-3, 7-chloro-8-methyl-3-[4-(2,2,2-trifluoroethoxy)phenyl]-2-(trifluoromethyl)-4H-pyrido[1,2-a]pyrimidin-4-one], 241 nM.
To `Cc1cnn2c(=O)c(-c3cnc(OCC(F)(F)F)nc3)c(C(F)(F)F)nc2c1` [Example 39-48, 8-methyl-3-[2-(2,2,2-trifluoroethoxy)pyrimidin-5-yl]-2-(trifluoromethyl)-4H-pyrimido[1,2-b]pyridazin-4-one] belongs 518 nM; to `O=c1c(-c2cnn(CCC(F)(F)F)c2)c(C(F)(F)F)nc2ccc(F)cn12` [Example 39-27, 7-fluoro-2-(trifluoromethyl)-3-[1-(3,3,3-trifluoropropyl)-1H-pyrazol-4-yl]-4H-pyrido[1,2-a]pyrimidin-4-one], 1.1 nM.
To `COc1ccn2c(=O)c(-c3cccc(OCC(F)(F)F)c3)c(C(F)(F)F)nc2c1` [Example 62, 8-Methoxy-3-[3-(2,2,2-trifluoroethoxy)phenyl]-2-(trifluoromethyl)-4H-pyrido[1,2-a]pyrimidin-4-one] belongs greater than 67000 nM.
The molecule `COc1ccn2c(=O)c(-c3cnn(C[C@H]4CC4(F)F)c3)c(C(F)(F)F)nc2c1` [Example 69, 3-(1-{[(1R)-2,2-Difluorocyclopropyl]methyl}-1H-pyrazol-4-yl)-8-methoxy-2-(trifluoromethyl)-4H-pyrido[1,2-a]pyrimidin-4-one] registered an IC50 of 18.2 nM.
With `CC[S@@+]([O-])c1ccn2c(=O)c(-c3ccc(OCC(F)(F)F)cc3)c(C(F)(F)F)nc2c1` [Example 15-8, 8-((R)-ethylsulfinyl)-3-(4-(2,2,2-trifluoroethoxy)phenyl)-2-(trifluoromethyl)-4H-pyrido[1,2-a]pyrimidin-4-one], the 50% inhibitory concentration (IC50) was 185 nM.
To `COc1nc2nc(C(F)(F)F)c(-c3cnn(CC(F)(F)C(F)(F)F)c3)c(=O)n2cc1Cl` [Example 66, 7-Chloro-8-methoxy-3-[1-(2,2,3,3,3-pentafluoropropyl)-1H-pyrazol-4-yl]-2-(trifluoromethyl)-4H-[1,3]diazino[1,2-a]pyrimidin-4-one] belongs 111 nM.
As to `O=c1c(-c2cnn(CC(F)(F)C(F)(F)F)c2)c(C(F)(F)F)nc2cc(Cl)ccn12` [Example 2-6, 8-chloro-3-(1-(2,2,3,3,3-pentafluoropropyl)-1H-pyrazol-4-yl)-2-(trifluoromethyl)-4H-pyrido[1,2-a]pyrimidin-4-one], it took 8.2 nM to reach half-maximal inhibition (IC50).
The molecule `COc1cc2nc(C(F)(F)F)c(-c3cnn(CC(F)(F)C(F)(F)F)c3)c(=O)n2cc1Cl` [Example 1-45, 7-chloro-8-methoxy-3-[1-(2,2,3,3,3-pentafluoropropyl)-1H-pyrazol-4-yl]-2-(trifluoromethyl)-4H-pyrido[1,2-a]pyrimidin-4-one] gave an IC50 of 86.1 nM.
To `O=c1c(-c2ccc(OCC(F)(F)F)cc2)c(C(F)(F)F)nc2cc(C(F)(F)F)ccn12` [Example 4-1, 3-(4-(2,2,2-Trifluoroethoxy)phenyl)-2,8-bis(trifluoromethyl)-4H-pyrido[1,2-a]pyrimidin-4-one] belongs 5220 nM.
`O=c1c(-c2cnc(OCC(F)(F)F)nc2)c(C(F)(F)F)nc2ccc(F)cn12` [Example 39-26, 7-fluoro-3-[2-(2,2,2-trifluoroethoxy)pyrimidin-5-yl]-2-(trifluoromethyl)-4H-pyrido[1,2-a]pyrimidin-4-one]: the half-maximal inhibitory concentration (IC50) was greater than 67000 nM.
Under `CN1CCn2c(nc(C(F)(F)F)c(-c3cnn(CC(F)(F)C(F)(F)F)c3)c2=O)C1` [Example 64, 8-Methyl-3-[1-(2,2,3,3,3-pentafluoropropyl)-1H-pyrazol-4-yl]-2-(trifluoromethyl)-4H,6H,7H,8H,9H-pyrimido[1,2-a]pyrazin-4-one] stands 540 nM.
Under `O=c1c(-c2cnc(OCC(F)(F)F)nc2)c(C(F)(F)F)nc2ccc(C3CC3)cn12` [Example 39-20, 7-cyclopropyl-3-[2-(2,2,2-trifluoroethoxy)pyrimidin-5-yl]-2-(trifluoromethyl)-4H-pyrido[1,2-a]pyrimidin-4-one] stands greater than 67000 nM; under `COc1cnn2c(=O)c(-c3cnn(CCC(F)(F)F)c3)c(C(F)(F)F)nc2c1` [Example 39-11, 8-methoxy-2-(trifluoromethyl)-3-[1-(3,3,3-trifluoropropyl)-1H-pyrazol-4-yl]-4H-pyrimido[1,2-b]pyridazin-4-one], 6.9 nM.
`COc1ccn2c(=O)c(-c3ccc(CCC(F)(F)F)cc3)c(C(F)(F)F)nc2c1` [Example 7-5, 8-methoxy-2-(trifluoromethyl)-3-(4-(3,3,3-trifluoropropyl)phenyl)-4H-pyrido[1,2-a]pyrimidin-4-one] had a half-maximal inhibitory concentration (IC50) of 11.9 nM.
Under `O=c1ccn2c(=O)c(-c3ccc(OCC(F)(F)F)cc3)c(C(F)(F)F)nc2[nH]1` [Example 10-3, 7-(4-(2,2,2-trifluoroethoxy)phenyl)-8-(trifluoromethyl)-2H-pyrimido[1,2-a]pyrimidine-2,6(1H)-dione] stands 900 nM; under `O=c1ccn2c(=O)c(-c3ccc(OCC(F)(F)F)c(F)c3)c(C(F)(F)F)nc2[nH]1` [Example 10-2, 7-(3-fluoro-4-(2,2,2-trifluoroethoxy)phenyl)-8-(trifluoromethyl)-2H-pyrimido[1,2-a]pyrimidine-2,6(1H)-dione], 328 nM.
Under `O=c1c(-c2cnn(CCC(F)(F)F)c2)c(C(F)(F)F)nc2ccc(Cl)cn12` [Example 39-17, 7-chloro-2-(trifluoromethyl)-3-[1-(3,3,3-trifluoropropyl)-1H-pyrazol-4-yl]-4H-pyrido[1,2-a]pyrimidin-4-one] stands 2.4 nM; under `CN(C(=O)F)c1ccn2c(=O)c(-c3cnn(CC(F)(F)C(F)(F)F)c3)c(C(F)(F)F)nc2c1` [Example 23, Methyl(4-oxo-3-(1-(2,2,3,3,3-pentafluoropropyl)-1H-pyrazol-4-yl)-2-(trifluoromethyl)-4H-pyrido[1,2-a]pyrimidin-8-yl)carbamyl fluoride], 1.6 nM.
To `O=c1c(-c2cnn(CCC(F)(F)F)c2)c(C(F)(F)F)nc2n1CCOC2` [Example 39-38, 2-(trifluoromethyl)-3-[1-(3,3,3-trifluoropropyl)-1H-pyrazol-4-yl]-4H,6H,7H,9H-pyrimido[2,1-c][1,4]oxazin-4-one] belongs 1070 nM; to `COc1ccn2c(=O)c(-c3cnn(CCC#N)c3)c(C(F)(F)F)nc2c1` [Example 1-24, 3-(4-(8-methoxy-4-oxo-2-(trifluoromethyl)-4H-pyrido[1,2-a]pyrimidin-3-yl)-1H-pyrazol-1-yl)propanenitrile], 833 nM.
`COc1ccn2c(=O)c(-c3ccc(OCCF)cc3)c(C(F)(F)F)nc2c1` [Example 1-11, 3-(4-(2-fluoroethoxy)phenyl)-8-methoxy-2-(trifluoromethyl)-4H-pyrido[1,2-a]pyrimidin-4-one] came in with a half-inhibitory concentration (IC50) of 26.1 nM.
